Target: T1, Human MIF (MIF tautomerase) (Homo sapiens, UniProt P14174)
T1 construct: purchased ProSpec
T1 sequence (P14174 2-115 limits assumed): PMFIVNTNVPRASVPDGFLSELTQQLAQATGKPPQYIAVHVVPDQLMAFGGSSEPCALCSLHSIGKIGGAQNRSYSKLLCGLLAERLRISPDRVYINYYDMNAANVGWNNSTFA
Assay: MIF Tautomerase Inhibitory Assay with L-Dopachrome Methyl Ester
Type: biochemical
Conditions: relative potency class, MIF tautomerase inhibition; L-dopachrome methyl ester substrate, pH 7.34, no pre-incubation; read-out: IC50
Description: MIF Tautomerase Inhibitory Assay with L-Dopachrome Methyl Ester
Assay Method (pH 7.34, 0.017-0.033% DMSO, 0.034% EtOH): A fresh stock solution of L-dopachrome methyl ester in MeOH was prepared at 55-65 mM through oxidation of L-3,4-dihydroxyphenylalanine methyl ester hydrochloride with sodium periodate according to the procedure described in WO9729635A1. MeOH was removed from 0.5 mL of the L-dopachrome methyl ester/MeOH solution (55-65 mM) under a stream of argon and the residue taken up in appropriate amount of water to prepare a substrate solution (7-10 mM). Active Human MIF (from ProSpec) ([…]) was dissolved in 675 μL 0.1% bovine serum albumin (BSA) in water, and the resultant MIF solution (1 volume) mixed with 55 volumes of Na2HPO4 buffer (50 mM, pH 7.34) to form a 265 ng/mL MIF working solution. MIF working solution (280 μL) or a no-MIF working solution (prepared by mixing 0.1% BSA (1 volume) with the aforementioned Na2HPO4 buffer (55 volumes)) was transferred to wells in a column of 8 wells on a 96-well plate in a Plate Reader (SPECTRAmax Plus 384, Molecular Devices), and 5 μL of H2O/DMSO (99/1) containing no inhibitor or an inhibitor (whose concentration was verified by HPLC). Without pre-mixing or pre-incubation, 10 μL freshly prepared L-dopachrome methyl ester/H2O solution (7-10 mM) was added to each well with a multi-pipet. The assay samples were mixed immediately by sucking up and expelling the contents of the wells three times with a multi-pipet. The absorbance (A1) at 475 nm was then recorded for each sample every 2 s for 3 min. After 5-6 min, the samples were monitored again for 3 min with a reading every two seconds at 475 nm (A2). It can be shown that when [substrate]<<Km, plots of Ln(A1−A2) versus time are linear with slopes m (Eq 1). IC50 values were estimated from Eq 2-5, the inhibitor concentration [I] in the assay mixture and values of m in the presence (mi), absence (mo) of the inhibitor, the value of m observed for the non-MIF blank (mn), the MIF concentration (e), and the specificity constant for the MIF catalyzed reaction (kcat/Km). Ln(A1−A2)=−mt (Eq 1) F=(mi−mn)/(mo−mn) (Eq 2) Wherein mo−mn=ekcat/Km (Eq 3) and mi−mn=(ekcat/Km)[…] (Eq 4) IC50=[I]F/(1−F) (Eq 5)
The compounds listed in Table 1, provided herein, were prepared via procedures identical or similar to those described in the Examples 1-85. The listed compounds were >95% pure by HPLC. Each listed compound yielded a mass spectrum consistent with its structure. Concentrations of MIF tautomerase inhibitors used in the assay were verified by HPLC and the extinction coefficients of the inhibitors. The designated relative potency of MIF tautomerase inhibitors is based on the IC50 as determined by the method described in Biochemical Assay as follows: A, IC50<1 μM; B, 1 μM≦IC50<5 μM; C, 5 μM≦IC50<10 μM; D, 10 μM≦IC50<50 μM; E, 50 μM≦IC50<200 μM.

SMILES | IC50 [nM]
CC(=O)N(C)CCOc1cccc(OC(C)[C@H]2CC[C@H](CN3Cc4ccc(O)c(F)c4C3=O)CC2)c1 (stereo partly drawn) | < 1000
CC(NCCO)C1CCC(CN2Cc3ccc(O)c(F)c3C2=O)CC1 (stereo not drawn) | < 1000
CC(C)OC(=O)[C@H]1CC[C@H](CN2Cc3ccc(O)cc3C2=O)CC1 | < 1000
CC(C)NC(C)[C@H]1CC[C@H](CN2Cc3cc(F)c(O)c(F)c3C2=O)CC1 (stereo partly drawn) | < 1000
CC(=O)OC(CCC1CCCCC1)[C@H]1CC[C@H](CN2Cc3ccc(O)cc3C2=O)CC1 (stereo partly drawn) | < 1000
CC(N[C@H](CO)C(=O)O)[C@H]1CC[C@H](CN2Cc3ccc(O)c(F)c3C2=O)CC1 (single isomer, unassigned) | < 1000
CC1CCCCC1N1Cc2ccc(O)cc2C1=O (stereo not drawn) | 10000 to 50000
CC(O)[C@H]1CC[C@H](CN2Cc3ccc(O)c(F)c3C2=O)CC1 (stereo partly drawn) | < 1000
CC[C@@H](C(=O)OC(C)[C@H]1CC[C@H](CN2Cc3ccc(O)c(F)c3C2=O)CC1)c1ccccc1 (stereo partly drawn) | < 1000
CC(Oc1cccc(OC(F)(F)F)c1)[C@H]1CC[C@H](CN2Cc3ccc(O)c(F)c3C2=O)CC1 (stereo partly drawn) | < 1000
CC(Oc1cccc(OCCN)c1)[C@H]1CC[C@H](CN2Cc3ccc(O)c(F)c3C2=O)CC1 (stereo partly drawn) | < 1000
O=C1OCc2ccc(OC[C@H]3CC[C@H](CN4Cc5ccc(O)cc5C4=O)CC3)cc21 | < 1000
COC(=O)[C@H]1CC[C@H](CN2Cc3ccc(O)cc3C2=O)CC1 | < 1000
CCC(C(=O)OC(C)[C@H]1CC[C@H](CN2Cc3cc(F)c(O)cc3C2=O)CC1)c1ccccc1 (stereo partly drawn) | < 1000
O=C1c2cc(O)ccc2CN1CCC1CCCCC1 | 5000 to 10000
CCOC(=O)CN1Cc2ccc(O)cc2C1=O | 50000 to 200000
O=C1c2cc(O)ccc2CN1CCc1ccc(F)cc1 | 10000 to 50000
CC(Oc1cccc(OCCN2CCOCC2)c1)[C@H]1CC[C@H](CN2Cc3ccc(O)c(F)c3C2=O)CC1 (stereo partly drawn) | < 1000
CC([C@H]1CC[C@H](CN2Cc3ccc(O)c(F)c3C2=O)CC1)N1CCOCC1 (stereo partly drawn) | < 1000
CC(=O)N[C@@H](COc1cccc(OC[C@H]2CC[C@H](CN3Cc4ccc(O)c(F)c4C3=O)CC2)c1)C(=O)O | < 1000
CCC(Oc1cccc(OC)c1)[C@H]1CC[C@H](CN2Cc3ccc(O)c(F)c3C2=O)CC1 (stereo partly drawn) | < 1000
O=C1c2cc(O)ccc2CN1C[C@H]1CC[C@H](COc2ccccc2)CC1 | < 1000
O=C1c2cc(O)ccc2CN1C[C@H]1CC[C@H](C(O)CC2CCCCC2)CC1 (stereo partly drawn) | < 1000
CC(C)C[C@@H](NC(C)C1CCC(CN2Cc3ccc(O)c(F)c3C2=O)CC1)C(=O)O (stereo partly drawn) [drawing 107] | < 1000
O=C1c2cc(O)ccc2CN1C[C@H]1CC[C@H](COC2CCCCC2)CC1 | 1000 to 5000

SMILES | IC50 [nM]
CC(Oc1cccc(OC[C@H](N)C(=O)O)c1)[C@H]1CC[C@H](CN2Cc3ccc(O)c(F)c3C2=O)CC1 (stereo partly drawn) | < 1000
CC(N)[C@H]1CC[C@H](CN2Cc3cc(F)c(O)c(F)c3C2=O)CC1 (stereo partly drawn) | 1000 to 5000
COc1cc(OC(C)[C@H]2CC[C@H](CN3Cc4ccc(O)c(F)c4C3=O)CC2)ccc1F (stereo partly drawn) | < 1000
O=C1c2cc(O)ccc2CN1C[C@H]1CC[C@H](COc2cc(O)cc(F)c2)CC1 | 1000 to 5000
COC(=O)[C@H](NC(C)C1CCC(CN2Cc3ccc(O)c(F)c3C2=O)CC1)C(C)C (stereo partly drawn) | < 1000
COC(=O)CCCCN1Cc2ccc(O)cc2C1=O | 1000 to 5000
COC(C)[C@H]1CC[C@H](CN2Cc3ccc(O)c(F)c3C2=O)CC1 (stereo partly drawn) | 1000 to 5000
CNC(=O)[C@H](Cc1ccccc1)NC(C)C1CCC(CN2Cc3ccc(O)c(F)c3C2=O)CC1 (stereo partly drawn) [drawing 100] | < 1000
NC[C@H]1CC[C@H](CN2Cc3ccc(O)c(F)c3C2=O)CC1 | 1000 to 5000
CC(Oc1cccc(F)c1)[C@H]1CC[C@H](CN2Cc3cc(F)c(O)cc3C2=O)CC1 (stereo partly drawn) | < 1000
CNC(=O)CCNC(C)C1CCC(CN2Cc3ccc(O)c(F)c3C2=O)CC1 (stereo not drawn) | < 1000
O=C1c2cc(O)ccc2CN1[C@H](CO)C1CCCCC1 | 10000 to 50000
CC(=O)NC[C@H]1CC[C@H](CN2Cc3ccc(O)c(F)c3C2=O)CC1 | < 1000
CC(OC(=O)CCC(=O)O)[C@H]1CC[C@H](CN2Cc3ccc(O)c(F)c3C2=O)CC1 (stereo partly drawn) | < 1000
C[C@H](O)[C@H]1CC[C@H](CN2Cc3ccc(O)c(F)c3C2=O)CC1 | < 1000
O=C1c2cc(O)ccc2CN1CCc1ccccc1 | 5000 to 10000
CC(O)[C@H]1CC[C@H](CN2Cc3cc(F)c(O)cc3C2=O)CC1 (stereo partly drawn) | < 1000
COc1cccc(OC(CCC2CCCCC2)[C@H]2CC[C@H](CN3Cc4ccc(O)cc4C3=O)CC2)c1 (stereo partly drawn) | 1000 to 5000
COc1cccc(OC(C)[C@H]2CC[C@H](CN3Cc4ccc(O)c(F)c4C3=O)CC2)c1 (stereo partly drawn) | < 1000
CN(C)C(=O)[C@H]1CC[C@H](CN2Cc3ccc(O)cc3C2=O)CC1 | 1000 to 5000
CC(N[C@@H](C)C(=O)O)[C@H]1CC[C@H](CN2Cc3ccc(O)c(F)c3C2=O)CC1 (single isomer, unassigned) | < 1000
COC(=O)[C@@H](CO)NC(C)[C@H]1CC[C@H](CN2Cc3ccc(O)c(F)c3C2=O)CC1 (single isomer, unassigned) | < 1000
COC(=O)CCCN1Cc2ccc(O)cc2C1=O | 5000 to 10000
O=C1c2cc(O)ccc2CN1Cc1ccccc1 | 10000 to 50000
O=C1c2cc(O)ccc2CN1[C@H]1CC[C@H](O)CC1 | 10000 to 50000

SMILES | IC50 [nM]
O=C1OCc2c(OC[C@H]3CC[C@H](CN4Cc5ccc(O)cc5C4=O)CC3)cccc21 | 1000 to 5000
CC(N)[C@H]1CC[C@H](CN2Cc3cc(Cl)c(O)c(F)c3C2=O)CC1 (stereo partly drawn) | 1000 to 5000
CC(Oc1cccc(F)c1)[C@H]1CC[C@H](CN2Cc3cc(F)c(O)c(F)c3C2=O)CC1 (stereo partly drawn) | < 1000
CC(Oc1cccc(OCCN(C)C)c1)[C@H]1CC[C@H](CN2Cc3ccc(O)c(F)c3C2=O)CC1 (stereo partly drawn) | < 1000
CCC(Oc1cccc(F)c1)[C@H]1CC[C@H](CN2Cc3ccc(O)cc3C2=O)CC1 (stereo partly drawn) | < 1000
CC(C)NC(C)[C@H]1CC[C@H](CN2Cc3ccc(O)cc3C2=O)CC1 (stereo partly drawn) | 1000 to 5000
CCC(O)[C@H]1CC[C@H](CN2Cc3ccc(O)c(F)c3C2=O)CC1 (stereo partly drawn) | < 1000
O=C1c2cc(O)ccc2CN1C1CCCCC1 | 5000 to 10000
CC(NCC(N)=O)[C@H]1CC[C@H](CN2Cc3ccc(O)c(F)c3C2=O)CC1 (stereo partly drawn) | < 1000
CC(C)CNC(C)[C@H]1CC[C@H](CN2Cc3ccc(O)cc3C2=O)CC1 (stereo partly drawn) | 1000 to 5000
O=C1c2c(ccc(O)c2F)CN1C[C@H]1CC[C@H](CO)CC1 | < 1000
O=C1c2cc(O)ccc2CN1CC1CCCCCC1 | 1000 to 5000
CC(C)C[C@@H](NC(C)C1CCC(CN2Cc3ccc(O)c(F)c3C2=O)CC1)C(=O)O (stereo partly drawn) [drawing 104] | < 1000
O=C1c2cc(O)ccc2CN1C[C@H]1CC[C@H](CN2CCOCC2)CC1 | 1000 to 5000
O=C1c2cc(O)ccc2CN1C[C@H]1CC[C@H](COc2cccc(F)c2)CC1 | < 1000
O=C1c2cc(O)ccc2CN1C[C@H]1CC[C@H](COc2ccccc2F)CC1 | < 1000
COc1cccc(OC[C@H]2CC[C@H](CN3Cc4ccc(O)cc4C3=O)CC2)c1 | < 1000
COc1cccc(OC(C)[C@H]2CC[C@H](CN3Cc4cc(F)c(O)c(F)c4C3=O)CC2)c1 (stereo partly drawn) | < 1000
O=C1c2cc(O)ccc2CN1C[C@H]1CC[C@H](C(=O)OC2CCCCCC2)CC1 | 5000 to 10000
O=C1c2cc(O)ccc2CN1CCc1cccc(O)c1 | 1000 to 5000
O=C1c2cc(O)ccc2CN1C[C@H]1CC[C@H](C(O)C2CCCCC2)CC1 (stereo partly drawn) | < 1000
CC(C)(C)COC(=O)[C@H]1CC[C@H](CN2Cc3ccc(O)cc3C2=O)CC1 | < 1000
CC(N[C@@H](C(=O)O)C(C)C)C1CCC(CN2Cc3ccc(O)c(F)c3C2=O)CC1 (stereo partly drawn) | < 1000
CNC(=O)[C@H](Cc1ccccc1)NC(C)C1CCC(CN2Cc3ccc(O)c(F)c3C2=O)CC1 (stereo partly drawn) [drawing 99] | < 1000
CC(Oc1cccc(F)c1)[C@H]1CC[C@H](CN2Cc3cc(F)c(O)cc3C2=O)CC1 (mixture of isomers) [drawing 62] | < 1000

— patent US9617212B2, “Isoindolin-1-ones as macrophage migration inhibitory factor (MIF) inhibitors” (Controlled Chemicals, Inc., priority 2013, dated 2017)
